Molecular target: T1, mOREG olfactory receptor (Olfr73) (Mus musculus, UniProt Q920P2)
T1 construct: gene Or5d18; N-terminal fusion with the first 20 amino acids of rhodopsin (Rho20-mOREG); untagged mOREG also measured
T1 sequence (Q920P2 1-313): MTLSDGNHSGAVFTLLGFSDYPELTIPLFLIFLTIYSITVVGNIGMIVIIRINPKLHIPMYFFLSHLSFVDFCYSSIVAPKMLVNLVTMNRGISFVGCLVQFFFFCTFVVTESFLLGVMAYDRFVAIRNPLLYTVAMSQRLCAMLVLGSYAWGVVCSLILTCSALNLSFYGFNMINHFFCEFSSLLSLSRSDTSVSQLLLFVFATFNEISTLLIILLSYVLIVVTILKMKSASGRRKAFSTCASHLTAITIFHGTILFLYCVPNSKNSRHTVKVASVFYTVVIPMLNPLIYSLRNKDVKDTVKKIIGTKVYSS
Assay: calcium imaging (fluo-4) in HEK293 cells co-expressing Rho-mOREG and olfactory CNG channel
Assay type: cell-based
Text: calcium imaging (fluo-4) in HEK293 cells co-expressing Rho-mOREG and olfactory CNG channel on mOREG olfactory receptor (Olfr73) | Responses to eugenol, a ligand for mOREG, were detected in cells co-expressing Rho-mOREG and CNG

C=CCc1ccc(O)c(OC)c1 [eugenol]
EC50: 20.8 µM

Reference: paper PMC520810, “Endoplasmic reticulum degradation impedes olfactory G-protein coupled receptor functional expression” (BMC Cell Biology, 2004)
